Test results: the COVID Moonshot data (paper PMC11187573), “Identification of SARS-CoV-2 Mpro inhibitors through deep reinforcement learning for de novo drug design and computational chemistry approaches” (RSC Medicinal Chemistry, 2024)

What was measured:
[1] = target: SARS-CoV-2 Main Protease (SARS-CoV-2) (UniProt P0DTD1)
[2] = target: SARS-CoV-2 Main Protease (SARS-CoV-2) (UniProt P0DTD1); remark: listed apart in the source

SMILES | relative solubility at 20 uM | relative solubility at 100 uM | inhibition ([1]; 20.0 µM) [%] | inhibition ([1]; 50.0 µM) [%] | inhibition ([2]; 50.0 µM) [%] | inhibition ([2]; 20.0 µM) [%] | IC50 [2] [µM]
O=C(CCNC(=O)c1c[nH]c2ccccc12)Nc1ccc(-n2cnc3ccccc32)cc1 | 0.82 | 0.54 | -3.48 | 8.08 | 43.9 | – | –
C=CC(=O)N(c1ccc(C(C)C)nc1)C(C(=O)Nc1ccc(OC)cc1C)c1cccnc1 (stereo unspecified) | 0.98 | 0.93 | 6.56 | 10.4 | – | 0 | –
C=CC(=O)N(c1ccc(C(C)(C)C)cc1)C(C(=O)Nc1ccc(OC)cc1C)c1cccnc1 (stereo unspecified) | 0.97 | 0.57 | – | 22.4 | -2.25 | 0 | –
C=CC(=O)N(c1ccc(SC)cc1)C(C(=O)NC(C)(C)C)c1cccnc1 (stereo unspecified) | 1 | 0.99 | 3.54 | 7.75 | – | 0 | –
O=C(NCCc1ccc2c(c1)CCO2)NCc1cccc(N2C(=O)NC3(CCCC3)C2=O)c1 | 0.95 | 0.97 | -29 | -12 | -30.5 | – | –
O=C(CCl)N1CCN(Cc2cc(O)ccc2O)CC1 | 0.99 | 0.99 | 57.4 | 74.5 | 89.9 | 63.9 | 9.28
C=CC(=O)N(c1ccc2cc[nH]c2c1)C(C(=O)NC(C)(C)C)c1cccnc1 (stereo unspecified) | 0.84 | 0.93 | 5.38 | 10.5 | – | 0 | –
COc1ccccc1OCCNC(=O)c1cc(=O)[nH]c2cc(F)ccc12 | 0.88 | 0.66 | -6.6 | 51.7 | 9.64 | – | –
CC(=O)Nc1ccc(C#N)cc1CN1CCN(C(=O)CCl)CC1 | 1 | 1.01 | 20.6 | 43.4 | – | 59.2 | 17.5
C=CC(=O)N(C1CCC2(CCCC2)C1)C(C(=O)NC(C)(C)C)c1cccnc1 (stereo unspecified) | 0.98 | 0.99 | 5.22 | 6.35 | – | 0 | –
NC(=O)C1Cc2ccccc2N(CC(=O)Nc2cnccn2)C1 (stereo unspecified) | 1 | 0.93 | 0.0292 | 6.19 | 0 | 0 | –
O=C(Cc1cccnc1Br)Nc1cccc(OCCn2cncn2)c1 | 1 | 1 | – | -21.7 | 0 | 0 | –
C=CC(=O)N(c1ccc(C(C)(C)C)cc1)C(C(=O)NCc1ccccc1)c1cccnc1 (stereo unspecified) | 0.99 | 0.89 | 42.3 | 66.6 | 100 | 69.1 | 14.3
C=CC(=O)N(c1cc(C(C)(C)C)on1)C(C(=O)Nc1ccc(OC)cc1C)c1cccnc1 (stereo unspecified) | 1 | 0.91 | 12.9 | 23.4 | – | 14.3 | –
O=C(CCl)N1CCN(Cc2cccc(Cl)c2)C[C@@H]1Cc1ccccc1 (stereo in doubt) | 0.97 | 0.92 | 22.5 | 45.2 | 66.6 | – | 18.9
O=S(=O)(NCCc1ccccc1)c1ccoc1 | 1 | 1 | – | -24.5 | 16.5 | 0 | –
CCOc1ccccc1/C=C1/C(=O)NC(=O)c2ccccc21 | 0.97 | 0.68 | -36.4 | 4.82 | 39.6 | – | –
C=CC(=O)N(c1cc(C(C)(C)C)on1)C(C(=O)NCCc1cccc(F)c1)c1cncc(Cl)c1 (stereo unspecified) | 0.97 | 0.56 | 15.8 | 40.2 | 100 | – | 4.78
C=CC(=O)N(c1ccc(C(C)(C)C)cc1)C(C(=O)NC1CCCCC1)c1cccnc1 (stereo unspecified) | 0.99 | 1 | 13.3 | 17.8 | 18.6 | 0 | –

SMILES | relative solubility at 20 uM | relative solubility at 100 uM | inhibition ([1]; 20.0 µM) [%] | inhibition ([1]; 50.0 µM) [%] | inhibition ([2]; 50.0 µM) [%] | inhibition ([2]; 20.0 µM) [%] | IC50 [2] [µM]
Cc1nnc(NC(=O)Cc2cccc(Cl)c2F)n1C | 1.01 | 1 | -12.7 | -10.8 | 0 | – | –
NS(=O)(=O)c1ccc2c(c1)C(=O)C(=O)N2 | 1.01 | 1 | -2.6 | -3.21 | 37.1 | – | –
C=CC(=O)N(c1ccc(C(C)(C)C)cc1)C(C(=O)NCCCOC)c1cccnc1 (stereo unspecified) | 0.99 | 0.98 | 3.35 | 19.4 | 39.5 | 12.2 | –
C=CC(=O)N(c1ccc(C(C)(C)C)cc1)C(C(=O)NCCOC)c1cccnc1 (stereo unspecified) | 1 | 1 | 35.7 | 52.7 | 70.3 | 25.7 | –
NS(=O)(=O)c1ccc2c(c1)CN(CC1CCN(C(=O)CCl)CC1)CC2 | 1 | 1 | 30.8 | 60.3 | 91.1 | – | 31.2
C=CC(=O)N(c1ccc(N(C)C)c(C)c1)C(C(=O)Nc1cccc(CC)c1)c1cccnc1 (stereo unspecified) | 0.85 | 0.68 | 7.05 | 11.7 | – | 0 | –
Cc1ccccc1CNc1ccccc1NC(=O)C(O)c1cccnc1 (stereo unspecified) | 0.95 | 0.94 | -0.056 | 7.28 | 35.7 | 4.59 | –
Cn1cncc1CNC(=O)Nc1cccc(OCC(F)F)n1 | 1 | 1 | – | 36.2 | 28.4 | 0 | –
O=C(Cc1cccc(Cl)c1)Nn1cnc2ccccc2c1=O | 1 | 1 | 70.9 | 87 | 0 | – | –
CC(NC(=O)CCl)c1cc(Cl)cc(-c2ccc(S(N)(=O)=O)cc2)c1 (stereo unspecified) | 0.99 | 0.99 | 98.4 | 94.6 | 79 | – | 0.526
C=CC(=O)N(c1ccc(N(C)C)c(C)c1)C(C(=O)Nc1c(C)cccc1CC)c1cccnc1 (stereo unspecified) | 0.9 | 0.77 | 6.4 | 13.2 | – | 0 | –
CC(C(=O)Nc1cnccc1C)=C1CC1 | 1 | 1 | 2.11 | -8.02 | 0 | – | –
O=C(Cc1ccccc1OC1CCOC1)OCc1cnn[nH]1 (stereo unspecified) | 1 | 1 | – | 20.7 | 0 | 0 | –
O=C1[C@H](Nc2nccn3cnnc23)CCN1c1cccc(Cl)c1 (stereo in doubt) | 1 | 0.98 | 3.55 | 5.29 | 0 | – | –
Cc1ccncc1-c1nc(-c2cccc(Cl)c2)no1 | 1 | 0.99 | 3.58 | 5.25 | 22.9 | – | –
NS(=O)(=O)c1ccc(N2CCC(c3ccsc3)CC2)cc1 | 0.98 | 0.76 | 7.4 | 17.1 | 42 | 37.4 | –
CC(NC(=O)Nc1cccc(N2CCCCC2=O)c1)c1ccn[nH]1 (stereo unspecified) | 1 | 1 | -8.95 | -2.76 | 0 | – | –
Cc1ncncc1NC(=O)Nc1ccccc1 | 0.99 | 0.99 | -2.06 | -0.628 | 20.1 | 6.04 | –
